Data: ChEMBL document CHEMBL2074028, “Direct interaction between a quinoline derivative, MS-209, and multidrug resistance protein (MRP) in human gastric cancer cells” (Biochem Biophys Res Commun, 1999)

Target: Multidrug resistance-associated protein 1 (Homo sapiens, UniProt P33527)
Test: TP_TRANSPORTER: inhibition of LTC4 uptake (LTC4: 0.00134 uM, MS-209: 3 uM) in membrane vesicles from MKN45R0.8 cells
Assay type: functional, cell membranes, Membrane vesicle
Parameters: scale not given: the % may be the effect or the level left
Conditions: mkn45r0.8, 3 µM

Chain of Multidrug resistance-associated protein 1 (P33527 whole entry): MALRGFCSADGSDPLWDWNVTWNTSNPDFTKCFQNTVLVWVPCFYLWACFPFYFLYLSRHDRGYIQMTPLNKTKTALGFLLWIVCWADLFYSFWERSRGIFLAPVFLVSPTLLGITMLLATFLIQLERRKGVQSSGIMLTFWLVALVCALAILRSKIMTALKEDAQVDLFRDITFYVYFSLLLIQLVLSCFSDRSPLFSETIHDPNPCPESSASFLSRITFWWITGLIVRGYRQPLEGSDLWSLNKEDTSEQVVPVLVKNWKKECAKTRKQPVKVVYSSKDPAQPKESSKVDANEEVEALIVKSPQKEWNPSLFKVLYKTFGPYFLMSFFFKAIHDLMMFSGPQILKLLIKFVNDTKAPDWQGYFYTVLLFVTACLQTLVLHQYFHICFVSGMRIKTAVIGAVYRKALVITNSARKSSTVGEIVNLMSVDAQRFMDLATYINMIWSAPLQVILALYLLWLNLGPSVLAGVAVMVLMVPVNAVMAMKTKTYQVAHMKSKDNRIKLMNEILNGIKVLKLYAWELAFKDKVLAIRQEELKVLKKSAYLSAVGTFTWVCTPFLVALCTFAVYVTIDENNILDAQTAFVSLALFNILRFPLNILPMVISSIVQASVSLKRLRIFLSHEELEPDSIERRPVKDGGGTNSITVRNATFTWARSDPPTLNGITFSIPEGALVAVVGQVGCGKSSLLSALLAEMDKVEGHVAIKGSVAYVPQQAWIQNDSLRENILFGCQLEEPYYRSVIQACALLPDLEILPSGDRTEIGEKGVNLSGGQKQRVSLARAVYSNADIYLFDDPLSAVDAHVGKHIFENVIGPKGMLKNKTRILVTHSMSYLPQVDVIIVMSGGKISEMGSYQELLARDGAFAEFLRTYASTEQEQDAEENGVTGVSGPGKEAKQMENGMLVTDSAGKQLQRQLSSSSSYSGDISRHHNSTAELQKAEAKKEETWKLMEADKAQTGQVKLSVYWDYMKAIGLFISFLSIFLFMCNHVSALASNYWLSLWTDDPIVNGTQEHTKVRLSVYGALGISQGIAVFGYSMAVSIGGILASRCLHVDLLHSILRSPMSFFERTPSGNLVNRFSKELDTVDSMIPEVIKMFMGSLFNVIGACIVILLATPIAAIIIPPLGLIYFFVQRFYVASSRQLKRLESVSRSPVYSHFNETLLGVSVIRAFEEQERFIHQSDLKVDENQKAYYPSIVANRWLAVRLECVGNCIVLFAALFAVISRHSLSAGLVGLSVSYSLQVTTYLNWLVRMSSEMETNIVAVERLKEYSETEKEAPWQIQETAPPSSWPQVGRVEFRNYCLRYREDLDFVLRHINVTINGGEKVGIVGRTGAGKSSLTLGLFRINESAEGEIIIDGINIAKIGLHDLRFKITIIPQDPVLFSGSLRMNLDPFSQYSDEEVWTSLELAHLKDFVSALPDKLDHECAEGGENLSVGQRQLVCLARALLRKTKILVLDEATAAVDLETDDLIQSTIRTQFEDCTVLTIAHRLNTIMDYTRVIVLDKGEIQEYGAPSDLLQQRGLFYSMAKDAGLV

Activity: 20%
Structure (SMILES): O=C(C(c1ccccc1)c1ccccc1)N1CCN(C[C@@H](O)COc2cccc3ncccc23)CC1
